According to patent US7138361B2, “Herbicidal heterocycles” (E. I. du Pont de Nemours and Company, priority 2000, dated 2006):

Key:
Type in all cases: in vivo
[1] = test system: bermudagrass (Cynodon dactylon); experiment: Test C postemergence
How it was run: (§1)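 Seeds are planted and treated before emergence; for the postemergence test, plants at 1- to 4-leaf stage (2–18 cm) receive the same formulation, a solvent blend containing surfactant. Plants stay in the greenhouse 12–14 days, then response is scored visually from 0 (none) to 100 (complete control).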

[2] = test system: cocklebur (Xanthium strumarium); experiment: Test C postemergence
How it was run: as §1

[3] = test system: common ragweed (Ambrosia elatior); experiment: Test C postemergence
How it was run: as §1

[4] = test system: corn (Zea mays); experiment: Test C postemergence
How it was run: as §1

[5] = test system: crabgrass (Digitaria sanguinalis); experiment: Test C postemergence
How it was run: as §1

[6] = test system: giant foxtail (Setaria faberii); experiment: Test C postemergence
How it was run: as §1

[7] = test system: goosegrass (Eleusine indica); experiment: Test C postemergence
How it was run: as §1

[8] = test system: johnsongrass (Sorghum halepense); experiment: Test C postemergence
How it was run: as §1

[9] = test system: kochia (Kochia scoparia); experiment: Test C postemergence
How it was run: as §1

[10] = test system: lambsquarters (Chenopodium album); experiment: Test C postemergence
How it was run: as §1

[11] = test system: morningglory (Ipomoea hederacea); experiment: Test C postemergence
How it was run: as §1

[12] = test system: pigweed (Amaranthus retroflexus); experiment: Test C postemergence
How it was run: as §1

[13] = test system: soybean (Glycine max); experiment: Test C postemergence
How it was run: as §1

[14] = test system: velvetleaf (Abutilon theophrasti); experiment: Test C postemergence
How it was run: as §1

[15] = test system: yellow nutsedge (Cyperus esculentus); experiment: Test C postemergence
How it was run: as §1

[16] = test system: barnyardgrass (Echinochloa crus-galli); experiment: Test C flooded paddy test; details: for Barnyardgrass plant response rating: Flooded Paddy, scale 0 to 100, 0 no effect, 100 complete control; for Plant response rating, Barnyardgrass: flooded paddy test, scale 0 to 100 (0 no effect, 100 complete control)
How it was run: (§2)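 Flooded paddy, 2-leaf stage at treatment. Readout: visual % control vs untreated, 0–100, at 12–14 d in greenhouse.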

[17] = test system: duck salad (Heteranthera limosa); experiment: Test C flooded paddy test; details: for Ducksalad plant response rating: Flooded Paddy, scale 0 to 100, 0 no effect, 100 complete control; for Plant response rating, Ducksalad: flooded paddy test, scale 0 to 100 (0 no effect, 100 complete control)
How it was run: as §2

[18] = test system: rice (Oryza saliva); experiment: Test C flooded paddy test; details: for Rice plant response rating: Flooded Paddy, scale 0 to 100, 0 no effect, 100 complete control; for Plant response rating, Rice: flooded paddy test, scale 0 to 100 (0 no effect, 100 complete control)
How it was run: as §2

[19] = Rate 125 g/ha, scale 0 to 100, 0 no effect, 100 complete control
[20] = Rate 250 g/ha, scale 0 to 100 (0 no effect, 100 complete control)
[21] = Rate 500 g/ha, scale 0 to 100 (0 no effect, 100 complete control)

CCC(CC)c1ccn(C2OCN(c3cccc(OC(F)(F)F)c3)C2=O)n1 (centres unmarked) [Compound 68]
30: Plant response rating, Ragweed, Common [3, 21] | Plant response rating, Velvetleaf [14, 21] | Rice plant response rating ([18]; Rate 250 g/ha) | Plant response rating, Rice ([18]; Rate 125 g/ha)
90: Plant response rating, Barnyardgrass ([16]; Rate 62 g/ha)
20: Plant response rating, Bermudagrass [1, 20] | Plant response rating, Johnsongrass [8, 21] | Plant response rating, Soybean [13, 21] | Plant response rating, Rice ([18]; Rate 62 g/ha)
80: Plant response rating, Lambsquarters [10, 19] | Plant response rating, Lambsquarters [10, 20]
70: Plant response rating, Kochia [9, 19] | Plant response rating, Kochia [9, 20] | Plant response rating, Kochia [9, 21] | Plant response rating, Morningglory [11, 21] | Plant response rating, Pigweed [12, 19] | Plant response rating, Pigweed [12, 20]
60: Plant response rating, Crabgrass [5, 21] | Plant response rating, Lambsquarters ([10]; Rate 62 g/ha, scale 0 to 100) | Plant response rating, Morningglory [11, 19] | Plant response rating, Morningglory [11, 20] | Plant response rating, Pigweed ([12]; Rate 62 g/ha, scale 0 to 100)
0: Plant response rating, Bermudagrass ([1]; Rate 62 g/ha, scale 0 to 100) | Plant response rating, Bermudagrass [1, 19] | Plant response rating, Cocklebur ([2]; Rate 62 g/ha, scale 0 to 100) | Plant response rating, Cocklebur [2, 19] | Plant response rating, Cocklebur [2, 20] | Plant response rating, Ragweed, Common ([3]; Rate 62 g/ha, scale 0 to 100) | Plant response rating, Ragweed, Common [3, 19] | Plant response rating, Ragweed, Common [3, 20] | Plant response rating, Corn ([4]; Rate 62 g/ha, scale 0 to 100) | Plant response rating, Corn [4, 19] | Plant response rating, Corn [4, 20] | Plant response rating, Corn [4, 21] | Plant response rating, Crabgrass ([5]; Rate 62 g/ha, scale 0 to 100) | Plant response rating, Crabgrass [5, 19] | Plant response rating, Crabgrass [5, 20] | Plant response rating, Foxtail, Giant ([6]; Rate 62 g/ha, scale 0 to 100) | Plant response rating, Foxtail, Giant [6, 19] | Plant response rating, Foxtail, Giant [6, 20] | Plant response rating, Foxtail, Giant [6, 21] | Plant response rating, Goosegrass ([7]; Rate 62 g/ha, scale 0 to 100) | Plant response rating, Goosegrass [7, 19] | Plant response rating, Goosegrass [7, 20] | Plant response rating, Goosegrass [7, 21] | Plant response rating, Johnsongrass ([8]; Rate 62 g/ha, scale 0 to 100) | Plant response rating, Johnsongrass [8, 19] | Plant response rating, Johnsongrass [8, 20] | Plant response rating, Soybean ([13]; Rate 62 g/ha, scale 0 to 100) | Plant response rating, Soybean [13, 19] | Plant response rating, Soybean [13, 20] | Plant response rating, Velvetleaf ([14]; Rate 62 g/ha, scale 0 to 100) | Plant response rating, Velvetleaf [14, 19] | Plant response rating, Velvetleaf [14, 20] | Plant response rating, Nutsedge ([15]; Rate 62 g/ha, scale 0 to 100) | Plant response rating, Nutsedge [15, 19] | Plant response rating, Nutsedge [15, 20] | Plant response rating, Nutsedge [15, 21]
50: Plant response rating, Cocklebur [2, 21] | Plant response rating, Kochia ([9]; Rate 62 g/ha, scale 0 to 100) | Plant response rating, Morningglory ([11]; Rate 62 g/ha, scale 0 to 100)
100: Plant response rating, Lambsquarters [10, 21] | Plant response rating, Pigweed [12, 21] | Barnyardgrass plant response rating ([16]; Rate 250 g/ha) | Barnyardgrass plant response rating ([16]; Rate 500 g/ha) | Plant response rating, Barnyardgrass ([16]; Rate 125 g/ha) | Ducksalad plant response rating ([17]; Rate 250 g/ha) | Ducksalad plant response rating ([17]; Rate 500 g/ha) | Plant response rating, Ducksalad ([17]; Rate 62 g/ha) | Plant response rating, Ducksalad ([17]; Rate 125 g/ha) | Rice plant response rating ([18]; Rate 500 g/ha)
40: Plant response rating, Bermudagrass [1, 21]

CCC(C)c1ccn(C2CCN(c3ccc(C)c(OC)c3)C2=O)n1 (centres unmarked) [Compound 80]
100: Plant response rating, Morningglory [11, 21] | Ducksalad plant response rating ([17]; Rate 250 g/ha) | Ducksalad plant response rating ([17]; Rate 500 g/ha) | Plant response rating, Ducksalad ([17]; Rate 125 g/ha)
20: Plant response rating, Bermudagrass [1, 21] | Plant response rating, Cocklebur ([2]; Rate 62 g/ha, scale 0 to 100) | Plant response rating, Foxtail, Giant [6, 21] | Plant response rating, Pigweed ([12]; Rate 62 g/ha, scale 0 to 100) | Plant response rating, Velvetleaf ([14]; Rate 62 g/ha, scale 0 to 100) | Plant response rating, Velvetleaf [14, 19] | Plant response rating, Velvetleaf [14, 20] | Plant response rating, Velvetleaf [14, 21] | Plant response rating, Nutsedge [15, 19] | Plant response rating, Nutsedge [15, 20] | Plant response rating, Nutsedge [15, 21]
40: Plant response rating, Cocklebur [2, 21] | Plant response rating, Pigweed [12, 19]
80: Plant response rating, Ragweed, Common [3, 21] | Plant response rating, Ducksalad ([17]; Rate 62 g/ha)
50: Plant response rating, Ragweed, Common [3, 20] | Plant response rating, Kochia [9, 21] | Plant response rating, Morningglory ([11]; Rate 62 g/ha, scale 0 to 100) | Plant response rating, Soybean ([13]; Rate 62 g/ha, scale 0 to 100) | Plant response rating, Rice ([18]; Rate 125 g/ha)
70: Plant response rating, Pigweed [12, 21] | Plant response rating, Soybean [13, 20] | Rice plant response rating ([18]; Rate 250 g/ha)
0: Plant response rating, Bermudagrass ([1]; Rate 62 g/ha, scale 0 to 100) | Plant response rating, Bermudagrass [1, 19] | Plant response rating, Bermudagrass [1, 20] | Plant response rating, Ragweed, Common ([3]; Rate 62 g/ha, scale 0 to 100) | Plant response rating, Ragweed, Common [3, 19] | Plant response rating, Corn ([4]; Rate 62 g/ha, scale 0 to 100) | Plant response rating, Corn [4, 19] | Plant response rating, Corn [4, 20] | Plant response rating, Corn [4, 21] | Plant response rating, Crabgrass ([5]; Rate 62 g/ha, scale 0 to 100) | Plant response rating, Crabgrass [5, 19] | Plant response rating, Crabgrass [5, 20] | Plant response rating, Foxtail, Giant ([6]; Rate 62 g/ha, scale 0 to 100) | Plant response rating, Foxtail, Giant [6, 19] | Plant response rating, Foxtail, Giant [6, 20] | Plant response rating, Goosegrass ([7]; Rate 62 g/ha, scale 0 to 100) | Plant response rating, Goosegrass [7, 19] | Plant response rating, Goosegrass [7, 20] | Plant response rating, Goosegrass [7, 21] | Plant response rating, Johnsongrass ([8]; Rate 62 g/ha, scale 0 to 100) | Plant response rating, Johnsongrass [8, 19] | Plant response rating, Johnsongrass [8, 20] | Plant response rating, Johnsongrass [8, 21] | Plant response rating, Kochia ([9]; Rate 62 g/ha, scale 0 to 100) | Plant response rating, Kochia [9, 19] | Plant response rating, Nutsedge ([15]; Rate 62 g/ha, scale 0 to 100) | Plant response rating, Barnyardgrass ([16]; Rate 62 g/ha)
90: Plant response rating, Lambsquarters [10, 21] | Plant response rating, Soybean [13, 21] | Barnyardgrass plant response rating ([16]; Rate 250 g/ha) | Barnyardgrass plant response rating ([16]; Rate 500 g/ha) | Rice plant response rating ([18]; Rate 500 g/ha)
30: Plant response rating, Cocklebur [2, 19] | Plant response rating, Cocklebur [2, 20] | Plant response rating, Crabgrass [5, 21] | Plant response rating, Kochia [9, 20]
10: Plant response rating, Lambsquarters ([10]; Rate 62 g/ha, scale 0 to 100)
60: Plant response rating, Morningglory [11, 19] | Plant response rating, Morningglory [11, 20] | Plant response rating, Soybean [13, 19] | Plant response rating, Barnyardgrass ([16]; Rate 125 g/ha)
